{
  "source": "paper PMC4990313",
  "about": "“Biocatalytic Asymmetric Alkene Reduction: Crystal Structure and Characterization of a Double Bond Reductase from Nicotiana tabacum” (ACS Catalysis, 2013)",
  "key": {"[1]": {"target": "T1, NtDBR (double bond reductase) (Nicotiana tabacum, UniProt Q9SLN8)", "T1 construct": "gene DBR; full-length, C-terminal His6-tag", "T1 sequence (Q9SLN8 whole entry)": "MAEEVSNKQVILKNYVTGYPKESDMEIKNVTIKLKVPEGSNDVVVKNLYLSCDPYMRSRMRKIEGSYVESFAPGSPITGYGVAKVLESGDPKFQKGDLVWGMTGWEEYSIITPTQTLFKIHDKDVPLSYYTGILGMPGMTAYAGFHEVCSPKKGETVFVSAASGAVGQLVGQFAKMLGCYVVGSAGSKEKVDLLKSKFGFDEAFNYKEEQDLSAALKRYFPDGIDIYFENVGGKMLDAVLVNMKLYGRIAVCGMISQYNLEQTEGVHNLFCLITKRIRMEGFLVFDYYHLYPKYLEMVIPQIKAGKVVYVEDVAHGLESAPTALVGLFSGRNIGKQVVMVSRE", "assay": "steady-state kinetics, NADPH oxidation; rate at pH […]", "type": "biochemical"}, "[2]": {"target": "T1, NtDBR (double bond reductase)", "assay": "steady-state kinetics, NADPH oxidation; kcat/Km at pH […]", "type": "biochemical"}, "[3]": {"target": "T1, NtDBR (double bond reductase)", "assay": "steady-state kinetics, NADPH oxidation; biotransformation with GC", "type": "biochemical"}, "[4]": {"target": "T1, NtDBR (double bond reductase)", "assay": "X-ray crystal structure (ternary complex, soak); some reduction in biotransformation", "type": "binding"}, "[5]": {"target": "T1, NtDBR (double bond reductase)", "assay": "X-ray crystal structure (ternary complex, soak)", "type": "binding"}, "[6]": {"target": "T1, NtDBR (double bond reductase)", "assay": "X-ray crystal structure (binary complex, NADPH soak); steady-state kinetics", "type": "binding"}, "[7]": {"target": "T1, NtDBR (double bond reductase)", "assay": "steady-state kinetics, NADPH oxidation; substrate inhibition at pH […]", "type": "biochemical"}},
  "data": [
    {"smiles": "C=CC(=O)CCCCC", "note": "[5a, 1-octen-3-one]", "values": [
      {"measurement": "steady-state kinetics, NADPH oxidation; rate at pH 7.3", "setting": "[1]", "result": "0.52 ± 0.03", "unit": "s^–1"}
    ]},
    {"smiles": "O=C/C=C/c1ccccc1", "note": "[6a, trans-cinnamaldehyde]", "values": [
      {"measurement": "steady-state kinetics, NADPH oxidation; kcat/Km at pH 5.4", "setting": "[2]", "result": 2.8}
    ]},
    {"smiles": "CCCCCC/C=C/C=O", "note": "[4a, trans-2-nonenal]", "values": [
      {"measurement": "steady-state kinetics, NADPH oxidation; rate at pH 7.3", "setting": "[1]", "result": "0.87 ± 0.07", "unit": "s^–1"}
    ]},
    {"smiles": "O=[N+]([O-])C1=CCCCC1", "note": "[1a, 1-nitrocyclohexene]", "values": [
      {"measurement": "steady-state kinetics, NADPH oxidation; biotransformation with GC", "setting": "[3]", "result": "NtDBR shows a high preference for 1-nitrocyclohexene (1a) over typical LTD alkenal/one substrates"}
    ]},
    {"smiles": "COc1cc(C=CC=O)ccc1O", "note": "[9a, 4-hydroxy-3-methoxycinnamaldehyde]", "values": [
      {"measurement": "X-ray crystal structure (ternary complex, soak); some reduction in biotransforma", "setting": "[4]", "result": "have modeled in HMCA because this was the compound soaked into the crystals"}
    ]},
    {"smiles": "NC(=O)c1ccc[n+]([C@@H]2O[C@H](COP(=O)(O)OP(=O)(O)OC[C@H]3O[C@@H](n4cnc5c(N)ncnc54)[C@H](OP(=O)(O)O)[C@@H]3O)[C@@H](O)[C@H]2O)c1", "note": "[NADP^+]", "values": [
      {"measurement": "X-ray crystal structure (ternary complex, soak)", "setting": "[5]", "result": "showed clear |Fo| – |Fc| electron density for the presence of NADP^+ and a second ligand in subunit A only"}
    ]},
    {"smiles": "NC(=O)C1=CN([C@@H]2O[C@H](COP(=O)(O)OP(=O)(O)OC[C@H]3O[C@@H](n4cnc5c(N)ncnc54)[C@H](OP(=O)(O)O)[C@@H]3O)[C@@H](O)[C@H]2O)C=CC1", "note": "[NADPH]", "values": [
      {"measurement": "X-ray crystal structure (binary complex, NADPH soak); steady-state kinetics", "setting": "[6]", "result": "Both the binary and ternary crystal structures showed clear |Fo| – |Fc| electron density for the NADP(H)"}
    ]},
    {"smiles": "CCC=C(C)C=O", "note": "[2a, 2-methylpentenal]", "values": [
      {"measurement": "Ki", "setting": "[7]", "result": "2600 ± 600", "unit": "µM"}
    ]}
  ]
}
